# Measured values: US8076285B2, “Lysobactin amides” (Aicuris GmbH & Co. KG, priority 2006, dated 2011)
# Where two headings read alike, the source gives them in different places. *1 amine or outer side, *2 acyl side, *3 side chain or, on linkers, in order; H or OH if unused. Where a SMILES comes first, the peptide text is derived from it. Bridges are numbered along the chain shown (N, C = ends). [ ]: non-standard residue; d: D form. ξ: configuration not given here. Phe(βR-NH) = O=C([C@@H](N[*:1])[C@H](N[*:3])c1ccccc1)[*:2]; Leu(3R-OH) = CC(C)[C@@H](O)[C@H](N)C(=O)O; X1 = NC(=O)[C@@H](O)C(N[*:1])C(=O)[*:2]; dAla(TMS) = C[Si](C)(C)C[C@@H](N)C(=O)O; d(tBuAla) = CC(C)(C)C[C@@H](N)C(=O)O; tBuAla = CC(C)(C)C[C@H](N)C(=O)O; 3Pal = N[C@@H](Cc1cccnc1)C(=O)O; aThr = C[C@H](O)[C@H](N)C(=O)O; ξIle = CC[C@H](C)C(N)C(=O)O; Nle = CCCC[C@H](N)C(=O)O; ξS = NC(CO)C(=O)O; ξA = CC(N)C(=O)O
# Experiments:
# [1] = amide bond, 28-membered ring
# [2] = system: Enterococcus faecalis 27159; assay type: cell-based
# Experimental: (§1) Determination of the Minimum Inhibitory Concentration (MIC):
# (§2) The MIC is determined in the liquid dilution test in accordance with the NCCLS guidelines. Overnight cultures of Staphylococcus aureus 133, Enterococcus faecalis 27159, E. faecium 4147 and Streptococcus pneumoniae G9a are incubated with the described test substances in a 1:2 dilution series. The MIC determination is carried out with a cell count of 10^5 microbes per ml in Isosensitest medium (Difco, Irvine/USA), with the exception of S. pneumoniae which is tested in BHI broth (Difco, Irvine/USA) with 10% bovine serum with a cell count of 10^6 microbes per ml. The cultures are incubated at 37° C. for 18-24 hours, S. pneumoniae in the presence of 10% CO2.
# (§3) The MIC is defined as the lowest concentration of each substance at which no visible bacterial growth occurs any longer. The MIC values are reported in μg/ml.
# [3] = system: Staphylococcus aureus 133; assay type: cell-based
# Experimental: as §1, §2, §3
# [4] = system: Streptococcus pneumoniae G9a; assay type: cell-based
# Experimental: as §1, §2, §3
# [5] = Isosensitest medium, 10^5 microbes per ml, 37° C., 18-24 hours
compound,measurement,setting,value
CC[C@H](C)[C@@H]1NC(=O)[C@@H](CCCNC(=O)OCc2ccccc2)NC(=O)[C@H](CC(C)C)NC(=O)[C@H]([C@H](O)C(C)C)NC(=O)[C@@H](NC(=O)[C@H](CC(C)(C)C)NC(=O)[C@@H](CC(C)(C)C)NC(=O)OCc2ccccc2)[C@@H](c2ccccc2)NC(=O)[C@H](CO)NC(=O)[C@H](CC(N)=O)NC(=O)CNC(=O)[C@H]([C@H](C)O)NC1=O,"ring closure, yield after HPLC","[1]; from Z-dAla(3-tBu)-Ala(3-tBu)-(3R)3-amino-Phe(free 3-NH2)-(3R)3-OH-Leu-Leu-dOrn(Z)-Ile-aThr-Gly-Asn-Ser-OH, HATU/NMM, DMF, 4.0 °C",91.3%
"CC[C@H](C)[C@@H]1NC(=O)[C@@H](CCCNC(=N)N)NC(=O)[C@H](CC(C)C)NC(=O)[C@H]([C@H](O)C(C)C)NC(=O)[C@@H](NC(=O)[C@H](CC(C)(C)C)NC(=O)[C@H](N)CC(C)(C)C)[C@@H](c2ccccc2)NC(=O)[C@H](CO)NC(=O)C(C)NC(=O)CNC(=O)[C@H]([C@H](C)O)NC1=O (stereo partly drawn) [Example 13, [3-tert-Butyl-D-alanyl]-[3-tert-butyl-L-alanyl]-[(3R)-3-amino-L-phenylalanyl]-[(3R)-3-hydroxy-L-leucyl]-L-leucyl-D-arginyl-L-isoleucyl-L-allothreonyl-glycyl-L-alanyl-L-serine C^1.11-N^3.3-lactam bistrifluoroacetate] (H-[d(tBuAla)][tBuAla][Phe(βR-NH)][Leu(3R-OH)]L[dR]I[aThr]G[ξA]S; lactam 3-C)",MIC E. faecalis ICB 27159,[2]; 27159,0.5 µg/mL
same,MIC S. aureus 133,[3]; 133,0.25 µg/mL
same,MIC S. pneumoniae G9a,[4]; G9a,0.5 µg/mL
CC[C@H](C)[C@@H]1NC(=O)[C@@H](CCCNC(=N)N)NC(=O)[C@H](CC(C)C)NC(=O)[C@H]([C@H](O)C(C)C)NC(=O)[C@@H](NC(=O)OCc2ccccc2)[C@@H](c2ccccc2)NC(=O)[C@H](CO)NC(=O)[C@H]([C@@H](C)O)NC(=O)CNC(=O)[C@H]([C@H](C)O)NC1=O,"ring closure, yield after HPLC","[1]; from Z-Phe((3R)-3-NH2)-Leu((3R)-3-OH)-Leu-dArg-Ile-aThr-Gly-Thr-Ser-OH?, HATU/NMM, DMF, 0.0 °C",65%
"CC[C@H](C)[C@@H]1NC(=O)[C@@H](CCCNC(=N)N)NC(=O)[C@H](CC(C)C)NC(=O)[C@H]([C@H](O)C(C)C)NC(=O)[C@@H](NC(=O)[C@H](CC(C)(C)C)NC(=O)[C@H](N)CC(C)(C)C)[C@@H](c2ccccc2)NC(=O)[C@H](CO)NC(=O)C([C@H](O)C(N)=O)NC(=O)CNC(=O)[C@H](CO)NC1=O (stereo partly drawn) [Example 14, [3-tert-Butyl-D-alanyl]-[3-tert-butyl-L-alanyl]-[(3R)-3-amino-L-phenylalanyl]-[(3R)-3-hydroxy-L-leucyl]-L-leucyl-D-arginyl-L-isoleucyl-L-seryl-glycyl-[(3S)-3-hydroxy-L-asparaginyl]-L-serine C^1.11-N^3.3-lactam bistrifluoroacetate] (H-[d(tBuAla)][tBuAla][Phe(βR-NH)][Leu(3R-OH)]L[dR]ISG[X1]S; lactam 3-C)",MIC E. faecalis ICB 27159,[2]; 27159,0.5 µg/mL
same,MIC S. aureus 133,[3]; 133,0.25 µg/mL
same,MIC S. pneumoniae G9a,[4]; G9a,0.125 µg/mL
CC[C@H](C)[C@@H]1NC(=O)[C@@H](CCCNC(=N)N)NC(=O)[C@H](CC(C)C)NC(=O)[C@H]([C@H](O)C(C)C)NC(=O)[C@@H](NC(=O)OCc2ccccc2)[C@@H](c2ccccc2)NC(=O)[C@H](CO)NC(=O)[C@H]([C@H](O)C(N)=O)NC(=O)CNC(=O)[C@H]([C@H](C)O)NC1=O,"ring closure, yield after HPLC","[1]; from Z-(3R)-3-amino-Phe-(3R)-3-hydroxy-Leu-Leu-dArg-Ile-alloThr-Gly-(3S)-3-hydroxy-Asn-Ser-OH, HATU/NMM, DMF, 1.27 mM, 0.0 °C",78.3%
"CCCC[C@@H]1NC(=O)[C@H]([C@H](O)C(C)C)NC(=O)[C@@H](NC(=O)[C@H](Cc2cccnc2)NC(=O)[C@H](N)C[Si](C)(C)C)[C@@H](c2ccccc2)NC(=O)C(CO)NC(=O)[C@H](C)NC(=O)CNC(=O)[C@H]([C@H](C)O)NC(=O)[C@H]([C@@H](C)CC)NC(=O)[C@@H](CCCNC(=N)N)NC1=O (stereo partly drawn) [Example 41, [3-Trimethylsilyl-D-alanyl]-[3-(3-pyridyl)-L-alanyl]-[(3R)-3-amino-L-phenylalanyl]-[(3R)-3-hydroxy-L-leucyl]-L-norleucyl-D-arginyl-L-isoleucyl-L-allothreonyl-glycyl-L-alanyl-L-serine C^1.11-N^3.3-lactam tristrifluoroacetate] (H-[dAla(TMS)][3Pal][Phe(βR-NH)][Leu(3R-OH)][Nle][dR]I[aThr]GA[ξS]; lactam 3-C)",MIC E. faecalis ICB 27159,[2]; [5],2 µg/mL
same,MIC S. aureus 133,[3]; [5],0.25 µg/mL
same,MIC S. pneumoniae G9a,"[4]; BHI broth with 10% bovine serum, 10^6 microbes per ml, 37° C., 18-24 hours, 10% CO2",0.25 µg/mL
CC[C@H](C)[C@@H]1NC(=O)[C@@H](CCCNC(=N)N)NC(=O)[C@H](CC(C)C)NC(=O)[C@H]([C@H](O)C(C)C)NC(=O)[C@@H](NC(=O)OCc2ccccc2)[C@@H](c2ccccc2)NC(=O)[C@H](CO)NC(=O)[C@H](Cc2cccnc2)NC(=O)CNC(=O)[C@H]([C@H](C)O)NC1=O,"ring closure, yield after HPLC","[1]; from Z-Phe((3R)-3-NH2)-Leu((3R)-3-OH)-Leu-dArg-Ile-aThr-Gly-Ala(3-pyridyl)-Ser-OH, HATU/NMM, DMF, 0.0 °C",51%
CC[C@H](C)[C@@H]1NC(=O)[C@@H](CCCNC(=N)N)NC(=O)[C@H](CC(C)C)NC(=O)[C@H]([C@H](O)C(C)C)NC(=O)[C@@H](NC(=O)[C@H](CC(C)C)NC(=O)[C@@H](CC(C)C)NC(=O)OCc2ccccc2)[C@@H](c2ccccc2)NC(=O)[C@H](CO)NC(=O)[C@H](CC(N)=O)NC(=O)CNC(=O)[C@H]([C@@H](C)O)NC1=O,"ring closure, yield after HPLC","[1]; from Z-dLeu-Leu-(3R)3-amino-Phe(free 3-NH2)-(3R)3-OH-Leu-Leu-dArg-Ile-Thr-Gly-Asn-Ser-OH, HATU/NMM, DMF, 25.0 °C",88.3%
CC[C@H](C)[C@@H]1NC(=O)[C@@H](CCCNC(=N)N)NC(=O)[C@H](CC(C)C)NC(=O)[C@H]([C@H](O)C(C)C)NC(=O)[C@@H](NC(=O)OCc2ccccc2)[C@@H](c2ccccc2)NC(=O)[C@H](CO)NC(=O)[C@H](CO)NC(=O)CNC(=O)[C@H]([C@H](C)O)NC1=O,"ring closure, yield after HPLC","[1]; from Z-Phe((3R)-3-NH2)-Leu((3R)-3-OH)-Leu-dArg-Ile-aThr-Gly-Ser-Ser-OH, HATU/NMM, DMF, 19.4 mM, 0.0 °C",43%
"CC[C@H](C)C1NC(=O)[C@H]([C@H](O)C(C)C)NC(=O)[C@@H](NC(=O)[C@H](CC(C)(C)C)NC(=O)[C@H](N)CC(C)(C)C)[C@@H](c2ccccc2)NC(=O)C(CO)NC(=O)[C@H](CO)NC(=O)CNC(=O)[C@H]([C@H](C)O)NC(=O)[C@H]([C@@H](C)CC)NC(=O)[C@@H](CCCNC(=N)N)NC1=O (stereo partly drawn) [Example 35, [3-tert-Butyl-D-alanyl]-[3-tert-butyl-L-alanyl]-[(3R)-3-amino-L-phenylalanyl]-[(3R)-3-hydroxy-L-leucyl]-L-isoleucyl-D-arginyl-L-isoleucyl-L-allothreonyl-glycyl-L-seryl-L-serine C^1.11-N^3.3-lactam bistrifluoroacetate] (H-[d(tBuAla)][tBuAla][Phe(βR-NH)][Leu(3R-OH)][ξIle][dR]I[aThr]GS[ξS]; lactam 3-C)",MIC E. faecalis ICB 27159,[2]; 27159,1 µg/mL
same,MIC S. aureus 133,[3]; 133,0.25 µg/mL
same,MIC S. pneumoniae G9a,[4]; G9a,0.5 µg/mL
CC[C@H](C)[C@@H]1NC(=O)[C@@H](CCCNC(=N)N)NC(=O)[C@H](CC(C)C)NC(=O)[C@H]([C@H](O)C(C)C)NC(=O)[C@@H](NC(=O)OCc2ccccc2)[C@@H](c2ccccc2)NC(=O)[C@H](CO)NC(=O)[C@H](Cc2ccccc2)NC(=O)CNC(=O)[C@H]([C@H](C)O)NC1=O,"ring closure, yield after HPLC","[1]; from Z-Phe((3R)-3-NH2)-Leu((3R)-3-OH)-Leu-dArg-Ile-aThr-Gly-Phe-Ser-OH?, HATU/NMM, DMF, 0.0 °C",96%
N^2.1-(Benzyloxycarbonyl)-[(3R)-3-amino-L-alanyl)]-[(3R)-3-hydroxy-L-leucyl]-L-leucyl-D-arginyl-L-isoleucyl-L-allothreonyl-glycyl-[(3S)-3-hydroxy-L-asparaginyl]-L-serine C^1.9-N^3.1-lactam hydrochloride,"ring closure, yield after HPLC","[1]; Et3N (Pfp ester), CHCl3, 0.11 mM, 3 steps",15.9%
CC[C@H](C)[C@@H]1NC(=O)[C@@H](CCCN(C(=N)NC(=O)OCc2ccccc2)C(=O)OCc2ccccc2)NC(=O)[C@H](CC(C)C)NC(=O)[C@H]([C@H](O)C(C)C)NC(=O)[C@@H](NC(=O)[C@H](CC(C)(C)C)NC(=O)[C@@H](CC(C)(C)C)NC(=O)OCc2ccccc2)[C@@H](c2ccccc2)NC(=O)[C@H](CO)NC(=O)[C@H](CC(N)=O)NC(=O)CNC(=O)[C@H]([C@H](C)O)NC1=O,"ring closure, yield after HPLC","[1]; from Z-dAla(3-tBu)-Ala(3-tBu)-(3R)3-amino-Phe(free 3-NH2)-(3R)3-OH-Leu-Leu-dArg(Z)2-Ile-aThr-Gly-Asn-Ser-OH, HATU/NMM, DMF, 1.1 mM, 25.0 °C",90.1%
CC[C@H](C)[C@@H]1NC(=O)[C@@H](CCCNC(=N)N)NC(=O)[C@H](CC(C)C)NC(=O)[C@H]([C@H](O)C(C)C)NC(=O)[C@@H](NC(=O)[C@H](CC(C)(C)C)NC(=O)[C@@H](CC(C)(C)C)NC(=O)OCc2ccccc2)[C@@H](c2ccccc2)NC(=O)[C@H](CO)NC(=O)[C@H](CC(N)=O)NC(=O)CNC(=O)[C@H]([C@H](C)O)NC1=O,"ring closure, yield after HPLC","[1]; from Z-dAla(3-tBu)-Ala(3-tBu)-(3R)3-amino-Phe(free 3-NH2)-(3R)3-OH-Leu-Leu-dArg-Ile-aThr-Gly-Asn-Ser-OH, HATU/NMM, DMF, 1.14 mM, 4.0 °C",80%
